# Values quoted from earlier work, collected in patent US20230346708A1, “STABLE FORMULATIONS OF ANTI-CANCER PEPTIDES” (Oncolyze, Inc., priority 2020, published 2023).
# Tested on: cancer cells
# Conditions: cancer cells vs normal cells; general statement, no data shown
sequence,measurement,value
"ETFSDLWKLLKKWKMRRNQFWVKVQRG [PNC-28, p53 aa17-26-MRP anti-cancer peptide]",Tumor cell necrosis,"induce tumor cell necrosis of cancer cells, but not normal cells"
